The source of these data is patent publication US20230009608A1, “GRK2 INHIBITORS AND USES THEREOF” (Cygnal Therapeutics, Inc., priority 2020, published 2023).

pIC50: −log10 of the molar value. Like-named read-outs stand apart in the source and are kept apart here.

The target in one assay is T1, GRK2 (Homo sapiens, UniProt P25098).
T1 construct: purchased SignalChem A14-10G
T1 sequence (P25098 1-689): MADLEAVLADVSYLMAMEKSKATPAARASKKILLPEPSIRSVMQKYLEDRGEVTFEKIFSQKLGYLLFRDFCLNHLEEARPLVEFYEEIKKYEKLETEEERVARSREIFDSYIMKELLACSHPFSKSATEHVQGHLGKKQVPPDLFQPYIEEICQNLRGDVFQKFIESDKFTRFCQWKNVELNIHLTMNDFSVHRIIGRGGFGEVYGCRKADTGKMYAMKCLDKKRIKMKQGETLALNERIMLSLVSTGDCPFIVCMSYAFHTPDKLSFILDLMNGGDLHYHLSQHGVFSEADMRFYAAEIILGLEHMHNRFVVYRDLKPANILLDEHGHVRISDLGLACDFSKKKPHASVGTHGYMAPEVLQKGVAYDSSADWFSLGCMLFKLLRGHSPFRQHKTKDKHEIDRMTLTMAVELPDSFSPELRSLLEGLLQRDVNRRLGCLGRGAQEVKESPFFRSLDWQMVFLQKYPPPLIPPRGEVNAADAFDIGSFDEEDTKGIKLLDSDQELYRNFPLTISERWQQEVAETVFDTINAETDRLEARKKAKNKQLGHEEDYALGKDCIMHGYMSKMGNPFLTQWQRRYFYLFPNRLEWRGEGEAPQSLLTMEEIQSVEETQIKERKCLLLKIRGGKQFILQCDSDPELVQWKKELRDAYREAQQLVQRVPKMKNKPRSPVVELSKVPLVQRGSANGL
The experiment in a line: ADPGlo GRK2 Inhibition Assay (Example 8). The class given is biochemical. Summed up:
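GRK2 (15 nM 2× enzyme solution) was preincubated 15 min with compound, then reacted 180 min at room temperature with 2× mix of 20 μM ATP plus GRKtide in HEPES pH 7.5, MgCl2, Tween-20, DTT. ADP was detected by ADP-Glo luminescence. Percent inhibition was normalised to enzyme and no-enzyme controls, with dose-response curves from threefold dilutions starting at 100 μM.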
(In general: ADP-Glo turns the ADP formed in a reaction into a luminescent signal.)

Assay [1] deals with PAXF1657 control empty vector cell line. Briefly: 7-day proliferation assay, PAXF1657 control empty vector cell line (Example 9). The assay is classed as cell-based. To be noted: 168 h; Cell Line: PAXF1657 empty vector (EV) cell line; 7-day; read-out: C: 7-day proliferation assay: IC50 GeoMean. A digest of the protocol: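 Read-out is CellTiter-Glo luminescence after 7 days of continuous exposure, with compound re-dosed in fresh medium at day 3. Cells were seeded at 500/well and treated across 30 μM-0.0002 μM (10 points, 0.3% DMSO); baseline viability plates were read at compound addition.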

Where [2] appears, read: ADPGlo GRK2 enzyme assay, read-out: A: Enzymatic GRK2: IC50 (nM) (Example 8).
Where [3] appears, read: 7.5 nM GRK2, 10 μM ATP, ADP-Glo, read-out: GRK2 IC50 (nM) (Example 8).

The IC50 is the concentration that inhibits the measured activity by half. Take `COc1cccc([C@@H](C)NC(=O)c2cccc(NCc3nnc(-c4ccncc4)n3C)c2)c1`: the IC50 at GRK2 (setting [2]) is 7.61 nM. Further, the pIC50 in assay [1] is less than 4.52.
Taken in the same sequence, the figures for `C[C@H](NC(=O)c1cccc(NCc2nnc(-c3ccncc3)n2C)c1)c1ncccc1Cl` were 2.97 nM and less than 5.73.
With `C[C@@H](NC(=O)c1cccc(NCc2nnc(-c3ccncc3)n2C)c1)c1ncccc1Cl`, the IC50 at GRK2 (setting [2]) turned out to be 11.4 nM. Besides, in assay [1], the pIC50 was less than 5.32.
The matching figures for `COc1ncc(Br)cc1CNC(=O)c1cccc(NCc2nnc(-c3ccncc3)[nH]2)c1`: 10.2 nM and 4.66.
The matching figures for `Cc1ccc(C#N)cc1CNC(=O)c1cccc(NCc2nnc(-c3ccncn3)n2CCO)c1`: 3.22 nM and less than 4.52.
The matching figures for `COc1ncc(Br)cc1CNC(=O)c1cccc(NCc2nnc(-c3ccncn3)n2CCO)c1`: 4.12 nM and less than 4.52.
For the molecule `Cc1ccc(C#N)cc1CNC(=O)c1cccc(NCc2nnc(-c3ccncc3)n2CCO)c1`, the IC50 on GRK2 (setting [2]) was 4.82 nM. In addition, the pIC50 in assay [1] was less than 5.34.
Taken in the same sequence, the figures for `COc1ncc(Br)cc1CNC(=O)c1cccc(NCc2nnc(-c3ccncc3)n2CCO)c1` were 7.15 nM and 4.82.
As for `COc1cccc([C@H](C)NC(=O)c2cccc(NCc3nnc(-c4ccncc4)[nH]3)c2)c1`, at GRK2 (setting [2]), the IC50 is 17.5 nM. Besides, the pIC50 in assay [1] was less than 4.52.
As for `Cn1c(CNc2cccc(C(=O)N[C@@H]3CCOc4ccccc43)c2)nnc1-c1ccncn1`, on GRK2 (setting [2]), the IC50 worked out at 23 nM. The pIC50 in assay [1] was 6.64.
Taken in the same sequence, the figures for `Cc1cccnc1[C@H](C)NC(=O)c1cccc(NCc2nnc(-c3ccncn3)n2C)c1` were 15 nM and less than 4.52.
On to `Cc1cccnc1[C@@H](C)NC(=O)c1cccc(NCc2nnc(-c3ccncn3)n2C)c1`, for which the IC50 at GRK2 (setting [2]) was determined as 26 nM. Further, the pIC50 in assay [1] is 5.42.
The matching figures for `CN1CC[C@@H](NC(=O)c2cccc(NCc3nnc(-c4ccncn4)n3C)c2)c2ccccc21`: 21 nM and less than 4.52.
As for `Cn1c(CNc2cccc(C(=O)N[C@H]3COCc4ccccc43)c2)nnc1-c1ccncn1`, at GRK2 (setting [2]), the IC50 came to 66 nM. Also, in assay [1], the pIC50 was less than 4.93.
Taken in the same sequence, the figures for `Cn1c(CNc2cccc(C(=O)NC3COc4cc(F)ccc43)c2)nnc1-c1ccncn1` (stereo not drawn) were 35.4 nM and 6.26.
For `COc1ccc(F)c(CNC(=O)c2cccc(NCc3nnc(-c4ccncn4)n3C)c2)c1`, the IC50 at GRK2 (setting [2]) is 20 nM. The pIC50 in assay [1] is 6.04.
The matching figures for `C#Cc1ccc(CNC(=O)c2cccc(NCc3nnc(-c4ccncn4)n3C)c2)c(F)c1`: 12 nM and 6.38.
For `Cn1c(CNc2cccc(C(=O)NC3CCS(=O)(=O)c4ccccc43)c2)nnc1-c1ccncn1` (stereo not drawn), at GRK2 (setting [2]), the IC50 is 18.2 nM. The pIC50 in assay [1] was 5.55.
As to `CN1Cc2ccccc2C(NC(=O)c2cccc(NCc3nnc(-c4ccncn4)n3C)c2)C1=O` (stereo not drawn), the IC50 on GRK2 (setting [2]) worked out at 63.5 nM. Moreover, the pIC50 in assay [1] was less than 5.72.
Taken in the same sequence, the figures for `Cn1c(CNc2cccc(C(=O)NCc3cccc4c3NC(=O)CO4)c2)nnc1-c1ccncn1` were 9.78 nM and 5.52.
The matching figures for `Cn1c(CNc2cccc(C(=O)NC3CCS(=O)(=O)c4ccc(F)cc43)c2)nnc1-c1ccncn1` (stereo not drawn): 65.4 nM and 5.06.
Taken in the same sequence, the figures for `COc1ncc(Br)cc1CNC(=O)c1cccc(NCc2nnc(-c3ccncn3)n2C)c1` were 21.5 nM and 6.21.
Consider `Cc1cc(C)n(C)c(=O)c1CNC(=O)c1cccc(NCc2nnc(-c3ccncn3)n2C)c1`, for which, on GRK2 (setting [2]), the IC50 is 9.97 nM. Also, the pIC50 in assay [1] is 5.77.
Taken in the same sequence, the figures for `Cn1c(CNc2cccc(C(=O)NCc3ccccc3S(=O)(=O)N3CCCC3)c2)nnc1-c1ccncn1` were 26.9 nM and 5.66.
Taken in the same sequence, the figures for `Cn1c(CNc2cccc(C(=O)NCc3cccnc3Cl)c2)nnc1-c1ccncn1` were 27.6 nM and 6.30.
The matching figures for `Cc1cc(C)c(CNC(=O)c2cccc(NCc3nnc(-c4ccncn4)n3C)c2)cn1`: 17.8 nM and 6.10.
Regarding `CC(NC(=O)c1cccc(NCc2nnc(-c3ccncn3)n2C)c1)c1ncccc1F` (stereo not drawn), the IC50 at GRK2 (setting [2]) was determined as 69 nM. The pIC50 in assay [1] is 5.58.
The matching figures for `C#Cc1ccccc1CNC(=O)c1cccc(NCc2nnc(-c3ccncn3)n2C)c1`: 46.4 nM and 5.63.
With `Cc1nccnc1C(C)NC(=O)c1cccc(NCc2nnc(-c3ccncn3)n2C)c1` (stereo not drawn), the IC50 on GRK2 (setting [2]) stood at 61 nM. Further, the pIC50 in assay [1] is less than 4.90.
Taken in the same sequence, the figures for `Cc1nncc(CNC(=O)c2cccc(NCc3nnc(-c4ccncn4)n3C)c2)c1C` were 14.3 nM and 5.84.
Taken in the same sequence, the figures for `Cn1c(CNc2cccc(C(=O)NCc3cc(C#N)ccc3F)c2)nnc1-c1ccncn1` were 17.6 nM and less than 5.89.
Taken in the same sequence, the figures for `Cn1c(CNc2cccc(C(=O)NC3COc4ccc(F)cc43)c2)nnc1-c1ccncn1` (stereo not drawn) were 26.6 nM and 5.90.
For the molecule `CN(C)c1ccccc1CNC(=O)c1cccc(NCc2nnc(-c3ccncn3)n2C)c1`, the IC50 at GRK2 (setting [2]) is 14.8 nM. For the same molecule, in assay [1], the pIC50 is 5.79.
The matching figures for `Cn1c(CNc2cccc(C(=O)NCc3cccc4c3OCO4)c2)nnc1-c1ccncn1`: 13.2 nM and 6.17.
The matching figures for `COc1nc(C)ccc1CNC(=O)c1cccc(NCc2nnc(-c3ccncn3)n2C)c1`: 30.1 nM and less than 4.52.
Taken in the same sequence, the figures for `COc1cc(F)ccc1CNC(=O)c1cccc(NCc2nnc(-c3ccncn3)n2C)c1` were 24.7 nM and 4.55.
Take `Cn1c(CNc2cccc(C(=O)NC3CC(O)c4ccccc43)c2)nnc1-c1ccncn1` (stereo not drawn): the IC50 on GRK2 (setting [2]) amounted to 65 nM. Besides, in assay [1], the pIC50 is less than 4.52.
The matching figures for `COc1ccc(C)nc1CNC(=O)c1cccc(NCc2nnc(-c3ccncn3)n2C)c1`: 67.5 nM and less than 4.91.
As to `Cn1c(CNc2cccc(C(=O)NCc3cnccc3Cl)c2)nnc1-c1ccncn1` [compound 47], the IC50 on GRK2 (setting [3]) was determined as 4.3 nM.
On the same count and under the same terms, the figure for `COc1cccc(C(C)NC(=O)c2cccc(NCc3nnc(-c4ccncn4)n3C)c2)c1` (stereo not drawn) [compound 48] is 4.4 nM.
For `COc1cccc(C(CO)NC(=O)c2cccc(NCc3nnc(-c4ccncn4)n3C)c2)c1` (stereo not drawn) [compound 49], the IC50 on GRK2 (setting [3]) turned out to be 5.4 nM.
Still for that read-out and setting: the figure for `Cn1ccnc1C(NC(=O)c1cccc(NCc2nnc(-c3ccncc3)[nH]2)c1)C1CC1` (stereo not drawn) [compound 50] is 5.5 nM; for `Cn1nccc1CNC(=O)c1cccc(NCc2nnc(-c3ccncn3)n2C)c1` [compound 51] it is 5.7 nM.
On the same count and under the same terms, the figure for `CC(NC(=O)c1cccc(NCc2nnc(-c3ccncn3)n2C)c1)c1c[nH]cn1` (stereo not drawn) [compound 52] is 5.7 nM; for `CCS(=O)(=O)c1ccc(CNC(=O)c2cccc(NCc3nnc(-c4ccncn4)n3C)c2)cc1` [compound 53] it is 6.2 nM.
The same measure, in the same setting: the figure for `Cn1c(CNc2cccc(C(=O)NCc3ccc(C#N)cc3)c2)nnc1-c1ccncn1` [compound 54] is 6.3 nM; for `Cn1c(CNc2cccc(C(=O)NCc3cnn(-c4ccccc4)n3)c2)nnc1-c1ccncn1` [compound 55] it is 6.5 nM; for `Cn1c(CNc2cccc(C(=O)NC3c4ccccc4CC3O)c2)nnc1-c1ccncn1` (stereo not drawn) [compound 56] it is 7.3 nM.
For the molecule `Cn1c(CNc2cccc(C(=O)NCc3ccc4c(c3)CCN4)c2)nnc1-c1ccncn1` [compound 57], the IC50 at GRK2 (setting [3]) is 9.4 nM.
Still for that read-out and setting: the figure for `Cn1c(CNc2cccc(C(=O)NCc3ccc(-n4ccnn4)cc3)c2)nnc1-c1ccncn1` [compound 58] is 9.5 nM; for `Cn1cccc1CNC(=O)c1cccc(NCc2nnc(-c3ccncn3)n2C)c1` [compound 59] it is 9.5 nM; for `Cn1c(CNc2cccc(C(=O)NC3CCOc4cccnc43)c2)nnc1-c1ccncn1` (stereo not drawn) [compound 60] it is 9.6 nM.
On the same count and under the same terms, next, `Cc1nc(CNC(=O)c2cccc(NCc3nnc(-c4ccncn4)n3C)c2)cs1` [compound 61]: 9.8 nM.
The same measure, in the same setting: the figure for `Cn1c(CNc2cccc(C(=O)NC(CO)c3cc(F)ccc3F)c2)nnc1-c1ccncn1` (stereo not drawn) [compound 62] is 10 nM.
Take `Cc1csc(CNC(=O)c2cccc(NCc3nnc(-c4ccncn4)n3C)c2)n1` [drawing 283]: on GRK2 (Enzyme Assay A, ADPGlo (Example 8), read-out: A: Enzymatic GRK2: IC50 (nM) (Example 8)), the IC50 amounted to 100 nM.
